Biological target: T1, 3-oxo-5-alpha-steroid 4-dehydrogenase 2 (Homo sapiens, UniProt P31213)
T1 sequence (P31213 whole entry): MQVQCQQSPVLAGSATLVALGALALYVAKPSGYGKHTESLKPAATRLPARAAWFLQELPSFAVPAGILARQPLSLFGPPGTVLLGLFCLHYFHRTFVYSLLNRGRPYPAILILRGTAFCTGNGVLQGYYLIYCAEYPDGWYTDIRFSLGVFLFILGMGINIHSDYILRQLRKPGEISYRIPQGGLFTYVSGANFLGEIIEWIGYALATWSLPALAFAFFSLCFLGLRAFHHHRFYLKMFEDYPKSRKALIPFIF
Test: Inhibition of Homo sapiens (human) Steroid 5-alpha-reductase type 2

| Structure (SMILES) | IC50 [nM] |
| --- | --- |
| C[C@]12CC[C@H]3[C@@H](CNC4=CC(=O)CC[C@@]43C)[C@@H]1CC[C@@H]2C(=O)NC(c1ccccc1)c1ccccc1 | 0.09 |
| C[C@]12CC[C@H]3[C@@H](CNC4=CC(=O)CC[C@@]43C)[C@@H]1CC[C@@H]2C(=O)NC(c1ccc(Cl)cc1)c1ccc(Cl)cc1 | 0.12 |
| CC(C)(C)c1ccc(-c2ccc(C(F)(F)F)cc2NC(=O)[C@H]2CC[C@H]3[C@@H]4CNC5=CC(=O)CC[C@]5(C)[C@H]4CC[C@]23C)cc1 | 0.5 |
| CCN(CC)C(=O)[C@H]1CC[C@H]2[C@@H]3CNC4=C(Br)C(=O)CC[C@]4(C)[C@H]3CC[C@]12C | 2.1 |
| CC(C)N(C(=O)[C@H]1CC[C@H]2[C@@H]3CNC4=CC(=O)CC[C@]4(C)[C@H]3CC[C@]12C)C(C)C | 0.36 |
| CCN(CC)C(=O)[C@H]1CC[C@H]2[C@@H]3CN(C(C)C)C4=CC(=O)CC[C@]4(C)[C@H]3CC[C@]12C | 4.9 |
| CC1=C2NC[C@H]3[C@@H]4CC[C@H](C(=O)NC(C)(C)C)[C@@]4(C)CC[C@@H]3[C@@]2(C)CCC1=O | 1.4 |
| CCN(CC)C(=O)[C@H]1CC[C@H]2[C@@H]3CN(C)C4=CC(=O)C=C[C@]4(C)[C@H]3CC[C@]12C | 5.7 |
| CN1C[C@H]2[C@@H]3CC[C@H](C(=O)NC(c4ccccc4)c4ccccc4)[C@@]3(C)CC[C@@H]2[C@@]2(C)CCC(=O)C=C12 | 0.2 |
| CC(C)(C)c1ccccc1NC(=O)[C@H]1CC[C@H]2[C@@H]3CNC4=CC(=O)CC[C@]4(C)[C@H]3CC[C@]12C | 0.2 |
| CON(C)C(=O)[C@H]1CC[C@H]2[C@@H]3CNC4=CC(=O)CC[C@]4(C)[C@H]3CC[C@]12C | 2.4 |
| CCN(CC)C(=O)[C@H]1CC[C@H]2[C@@H]3CNC4=C(C)C(=O)C=C[C@]4(C)[C@H]3CC[C@]12C | 8.1 |
| C[C@]12CC[C@H]3[C@@H](CNC4=CC(=O)CC[C@@]43C)[C@@H]1CC[C@@H]2C(=O)OC1C2CC3CC(C2)CC1C3 (some centres undefined) | 0.04 |
| CCCN1C[C@H]2[C@@H]3CC[C@H](C(=O)NC(c4ccccc4)c4ccccc4)[C@@]3(C)CC[C@@H]2[C@@]2(C)C=CC(=O)C=C12 | 1.3 |
| CN1C[C@H]2[C@@H]3CC[C@H](C(=O)NC4C5CC6CC(C5)CC4C6)[C@@]3(C)CC[C@@H]2[C@@]2(C)CCC(=O)C=C12 (some centres undefined) | 0.3 |
| CC(C)CC(=O)[C@H]1CC[C@H]2[C@@H]3CNC4=CC(=O)CC[C@]4(C)[C@H]3CC[C@]12C | 0.08 |
| C[C@]12CC[C@H]3[C@@H](CNC4=CC(=O)CC[C@@]43C)[C@@H]1CC[C@@H]2C(=O)NN(c1ccccc1)c1ccccc1 | 0.23 |
| CCN(CC)C(=O)[C@H]1CC[C@H]2[C@@H]3CNC4=CC(=O)C=C[C@]4(C)[C@H]3CC[C@]12C | 3.5 |
| CCN(CC)C(=O)[C@H]1CC[C@H]2[C@@H]3CNC4=CC(=O)CC[C@]4(C)[C@H]3CC[C@]12C | 1.5 |
| C[C@]12CC[C@H]3[C@@H](CNC4=CC(=O)CC[C@@]43C)[C@@H]1CC[C@@H]2C(=O)N1CCOCC1 | 7.1 |
| CC(C)c1cc(C(C)C)c(C(=O)[C@H]2CC[C@H]3[C@@H]4CNC5=CC(=O)CC[C@]5(C)[C@H]4CC[C@]23C)c(C(C)C)c1 | 0.5 |
| CCN(C)C(=O)[C@H]1CC[C@H]2[C@@H]3CNC4=CC(=O)CC[C@]4(C)[C@H]3CC[C@]12C | 2.8 |
| C[C@]12CC[C@H]3[C@@H](CNC4=CC(=O)CC[C@@]43C)[C@@H]1CC[C@@H]2C(=O)NC(c1ccccc1)(c1ccccc1)c1ccccc1 | 0.09 |
| CN1C[C@H]2[C@@H]3CC[C@H](C(=O)NC(C)(C)C)[C@@]3(C)CC[C@@H]2[C@@]2(C)C=CC(=O)C=C12 | 6.7 |
| CC(C)(C)NC(=O)[C@H]1CC[C@H]2[C@@H]3CNC4=CC(=O)C=C[C@]4(C)[C@H]3CC[C@]12C | 1.8 |
| C[C@]12CC[C@H]3[C@@H](CNC4=CC(=O)CC[C@@]43C)[C@@H]1CC[C@@H]2C(=O)Nc1cc(C(F)(F)F)cc(C(F)(F)F)c1 | 0.2 |
| CCN(CC)C(=O)[C@H]1CC[C@H]2[C@@H]3CN(C)C4=CC(=O)CC[C@]4(C)[C@H]3CC[C@]12C | 2.3 |
| CCN(CC)C(=O)[C@H]1CC[C@H]2[C@@H]3CN(C#N)C4=CC(=O)CC[C@]4(C)[C@H]3CC[C@]12C | 42 |
| C[C@]12CC[C@H]3[C@@H](CNC4=CC(=O)CC[C@@]43C)[C@@H]1CC[C@@H]2C(=O)NC(C1CCCCC1)C1CCCCC1 | 0.4 |

Reference: ChEMBL document CHEMBL3046251, “3D-QSAR CoMFA and CoMSIA studies for design of potent human steroid 5-reductase inhibitors” (Med Chem Res, 2013)
